According to patent US7612087B2, “Heterocyclic compounds as inhibitors of beta-lactamases” (Novexel, priority 2002, dated 2009):

Assays:
[1] = system: E. coli 250CF1 (Tem3); assay: microbe, parasite or virus in culture; assay type: cell-based; conditions: compound at 5 mg/l, 24 hours at 37° C.
Method in brief: (§1)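 Broth micro-dilution MIC of a β-lactamine series, each dilution containing a fixed 5 mg/l of test product. Inoculated plates incubated 24 h at 37 °C. MIC in mg/l taken as lowest concentration without visible bacterial growth.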

[2] = system: E. coli 250HT26 (SHV1); assay: MIC, micro-dilution in liquid medium, β-lactamine with product at 5 mg/l; assay type: cell-based; conditions: compound at 5 mg/l, 24 hours at 37° C.
Method in brief: as §1

[3] = system: S. aureus 011GO66 (PeniR); assay: as above; assay type: cell-based; conditions: compound at 5 mg/l, 24 hours at 37° C.
Method in brief: as §1

[4] = system: E. coli 250HT22 (Tem2); assay: as above; assay type: cell-based; conditions: compound at 5 mg/l, 24 hours at 37° C.
Method in brief: as §1

[5] = system: E. coli 250HT21 (Tem1); assay: as above; assay type: cell-based; conditions: compound at 5 mg/l, 24 hours at 37° C.
Method in brief: as §1

[6] = system: Serratia 301HT6; assay: as above; assay type: cell-based; conditions: compound at 5 mg/l; Trial 10, 301HT6 Serratia; 24 hours at 37° C.
Method in brief: as §1

[7] = system: E. coli 250SJ1 (Tem7); assay: as above; assay type: cell-based; conditions: compound at 5 mg/l, 24 hours at 37° C.
Method in brief: as §1

[8] = system: E. coli 250HT23 (Class D); assay: as above; assay type: cell-based; conditions: compound at 5 mg/l, 24 hours at 37° C.
Method in brief: as §1

[9] = system: P. aeruginosa 391HT7 (PSE); assay: as above; assay type: cell-based; conditions: compound at 5 mg/l, 24 hours at 37° C.
Method in brief: as §1

[10] = system: E. coli 250BE1 (SHV4); assay: as above; assay type: cell-based; conditions: compound at 5 mg/l, 24 hours at 37° C.
Method in brief: as §1

[11] = system: E. cloacae 293HT6 (Class C); assay: as above; assay type: cell-based; conditions: compound at 5 mg/l, 24 hours at 37° C.
Method in brief: as §1

[12] = system: P. aeruginosa 391HT8 (PSE); assay: as above; assay type: cell-based; conditions: compound at 5 mg/l, 24 hours at 37° C.
Method in brief: as §1

[13] = molecular target: T1, β-lactamase P99 (Enterobacter cloacae, UniProt P05364); assay: biochemical; conditions: 100 μM Nitrocefin, 50 mM sodium phosphate buffer pH7.0, 37° C.; read-out: IC50 nM/P99
T1 construct: The β-lactamases are isolated from bacterial strains which are resistant to penicillins and cephalosporins; endogenous in cells; host or cells: Enterobacter cloacae 293HT6 (natural producer; French-press lysate, 100,000 g supernatant)
Method in brief: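 P99 β-lactamase, taken from the soluble fraction of an Enterobacter cloacae 293HT6 lysate, was assayed at 37° C. in 50 mM sodium phosphate buffer pH7.0 with 100 μM Nitrocefin as the chromogenic substrate. Hydrolysis was followed kinetically at 485 nm at initial speed, with and without a 5 mn enzyme–inhibitor preincubation. Inhibitors were tested at 6 or 8 concentrations in duplicate, and IC50 was fitted with GraFit.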

[14] = molecular target: T2, β-lactamase TEM1 (Escherichia coli, UniProt P62593); assay: Inhibition of isolated β-lactamase Tem-1 (Nitrocefin hydrolysis); assay type: biochemical, E.coli 250HT21; conditions: 100 μM Nitrocefin, 50 mM sodium phosphate buffer pH7.0, 37° C.
T2 construct: The β-lactamases are isolated from bacterial strains which are resistant to penicillins and cephalosporins; endogenous in cells; host or cells: E. coli 250HT21 (natural producer; French-press lysate, 100,000 g supernatant)
Method in brief: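 TEM-1 from soluble extract of E. coli 250HT21, normalized enzyme, 100 μM Nitrocefin in 50 mM sodium phosphate pH 7.0 at 37 °C. Initial-rate hydrolysis read kinetically at 485 nm, with and without 5 min enzyme–inhibitor preincubation. CI50 from 6 or 8 concentrations in duplicate.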

T1 sequence (P05364 21-381): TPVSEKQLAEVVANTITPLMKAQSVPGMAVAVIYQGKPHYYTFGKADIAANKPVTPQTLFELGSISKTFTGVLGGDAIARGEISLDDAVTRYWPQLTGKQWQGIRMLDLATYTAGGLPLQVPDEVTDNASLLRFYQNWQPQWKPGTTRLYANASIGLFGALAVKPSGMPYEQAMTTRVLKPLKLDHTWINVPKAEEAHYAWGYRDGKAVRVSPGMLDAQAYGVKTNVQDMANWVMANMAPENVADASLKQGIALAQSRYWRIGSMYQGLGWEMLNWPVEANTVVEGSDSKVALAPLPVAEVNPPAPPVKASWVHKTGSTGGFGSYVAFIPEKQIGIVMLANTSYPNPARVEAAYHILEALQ
T2 sequence (P62593 24-286 limits assumed): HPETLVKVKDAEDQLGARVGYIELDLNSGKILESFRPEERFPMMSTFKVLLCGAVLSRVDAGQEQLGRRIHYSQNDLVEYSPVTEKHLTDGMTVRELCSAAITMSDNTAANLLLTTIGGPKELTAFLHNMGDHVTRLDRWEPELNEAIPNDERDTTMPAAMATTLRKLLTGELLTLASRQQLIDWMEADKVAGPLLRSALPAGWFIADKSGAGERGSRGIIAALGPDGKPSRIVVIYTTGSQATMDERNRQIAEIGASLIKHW

Question: What does the source list for `CN(C)c1cccc(NC(=O)[C@H]2CC[C@@H]3CN2C(=O)N3OS(=O)(=O)[O-])c1.[Na+]` (relative stereo) [Example 41, sodium salt of trans-N-[3-(dimethylamino)phenyl]-7-oxo-6-(sulphooxy)-1,6-diazabicyclo[3.2.1]octane-2-carboxamide]?
Answer: MIC of Cefotaxime in combination with the compound ([1]; Trial 4, 250CF1 E. coli Tem3): 2.5 µg/mL; MIC of Piperacillin in combination with the compound ([1]; Trial 4, 250CF1 Tem3): >40 µg/mL; MIC of Cefotaxime in combination with the compound ([2]; Trial 6, 250HT26 E. coli SHV1): <=0.04 μg/ml; MIC of Piperacillin in combination with the compound ([2]; Trial 6, 250HT26 SHV1): >40 µg/mL; MIC of Cefotaxime in combination with the compound ([3]; Trial 1, 011GO66 S. aureus PeniR): 2.5 µg/mL; MIC of Piperacillin in combination with the compound ([3]; Trial 1, 011GO66 peniR): 1.2 µg/mL; MIC of Cefotaxime in combination with the compound ([4]; Trial 3, 250HT22 E. coli Tem2): <=0.04 μg/ml; MIC of Piperacillin in combination with the compound ([4]; Trial 3, 250HT22 Tem2): >40 µg/mL; MIC of Cefotaxime in combination with the compound ([5]; Trial 2, 250HT21 E. coli Tem1): <=0.04 μg/ml; MIC of Piperacillin in combination with the compound ([5]; Trial 2, 250HT21 Tem1): 40 µg/mL; MIC of Cefotaxime in combination with the compound [6]: 0.08 µg/mL; MIC of Piperacillin in combination with the compound [6]: 1.2 µg/mL; MIC of Cefotaxime in combination with the compound ([7]; Trial 5, 250SJ1 E. coli Tem7): 0.6 µg/mL; MIC of Piperacillin in combination with the compound ([7]; Trial 5, 250SJ1 Tem7): >40 µg/mL; MIC of Piperacillin in combination with the compound ([8]; Trial 8, 250HT23 Class D): 40 µg/mL; MIC of Cefotaxime in combination with the compound ([8]; Trial 8, 250HT23 E. coli Class D): 0.08 µg/mL; MIC of Cefotaxime in combination with the compound ([9]; Trial 11, 391HT7 P. aeruginosa PSE): >40 µg/mL; MIC of Piperacillin in combination with the compound ([9]; Trial 11, 391HT7 PSE): >40 µg/mL; MIC of Cefotaxime in combination with the compound ([10]; Trial 7, 250BE1 E. coli SHV4): >40 µg/mL; MIC of Piperacillin in combination with the compound ([10]; Trial 7, 250BE1 SHV4): >40 µg/mL; MIC of Piperacillin in combination with the compound ([11]; Trial 9, 293HT6 Class): >40 µg/mL; MIC of Cefotaxime in combination with the compound ([11]; Trial 9, 293HT6 E. cloacae Class C): >40 µg/mL; MIC of Cefotaxime in combination with the compound ([12]; Trial 12, 391HT8 P. aeruginosa PSE): >40 µg/mL; MIC of Piperacillin in combination with the compound ([12]; Trial 12, 391HT8 PSE): >40 µg/mL; IC50 [13]: 120 nM; IC50 [14]: 14 nM
